Data published in patent publication EP4793274A1, “SALT AND CRYSTAL FORM OF KIF18A INHIBITOR COMPOUND, PREPARATION METHOD THEREFOR AND USE THEREOF” (Hubei Bio-Pharmaceutical Industrial Technological Institute …, priority 2023, dated 2025).
Where a name gives a salt, the structure may show the parent alone.

Tests used:
[1] = Solubility at room temperature in water, SGF and FaSSIF (HPLC concentration, pH of filtrate, XRPD of residual solid); settings: for S: solubility: feeding concentration 1 mg/mL; for pH: pH of filtrate
Protocol: 100 mg of NaCl and 50 mg of Triton X-100 were weighed into a 50 mL volumetric flask and then completely dissolved by addition of purified water. 816 µL of 1 M hydrochloric acid was added, and the pH was adjusted to 1.8 with 1 M hydrochloric acid or 1 M NaOH solution. The mixed solution was brought to the volume by addition of purified water.
340 mg of anhydrous NaH2PO4 and 620 mg of NaCl were weighed into a 100 mL volumetric flask, and then completely dissolved by addition of purified water. 55.44 µL of a 50% NaOH solution was then added, and the pH was adjusted to 6.5 with 1 M hydrochloric acid or 1 M NaOH solution. The mixed solution was brought to the volume by addition of purified water. Subsequently, 110 mg of SIF powder was weighed into a 50 mL volumetric flask and completely dissolved in the solution described above, and the mixed solution was brought to the volume.
Solids at a feeding concentration of 1 mg/mL (calculated based on free crystal form) were rotationally mixed with corresponding vehicles at room temperature. […] After sampling at each time point, the samples were centrifuged (at 10000 rpm) and filtered (through a 0.22 µm PTFE filter head), the HPLC concentrations and pH values of the filtrates were determined, and the centrifuged solid samples were subjected to XRPD analysis.

[2] = Hygroscopicity by dynamic vapor sorption (DVS); assay type: physicochemical; settings: 25 °C/80% RH
Protocol: Dynamic vapor sorption (DVS) curves were acquired on a DVS IntrInsic from Surface Measurement Systems (SMS). The relative humidity at 25 °C was corrected with the deliquescence points of LiCl, Mg(NO3)2, and KCl. Table A-5. DVS test parameters
The percentage changes in mass of the samples when the humidity changed (0% RH to 95% RH) at a constant temperature of 25 °C were collected. 157-166.

[3] = Solid state stability (XRPD and HPLC purity); assay type: physicochemical
Source text: 167-171. […] Table C-3. Summary of solid state stability evaluation

[4] = Dynamic solubility at 37 °C in H2O, SGF, FaSSIF and FeSSIF (HPLC concentration, pH of filtrate, XRPD of residual solid); assay type: physicochemical; settings: listed as Crystal form E of methanesulfonate; for S: solubility: feeding concentration 10 mg/mL; for FC: crystal form change: XRPD of residual solid; for pH: pH of filtrate
Protocol: 0.82 mL of glacial acetic acid and 1.18 g of NaCl were added to a 100 mL volumetric flask and completely dissolved by addition of purified water.
The solubility of each sample in H2O, SGF, FaSSIF, and FeSSIF was determined at different time points (1 h, 2 h, 4 h, and 24 h). […] 137-156. […] Table C-2. Summary of dynamic solubility test results at 37 °C

[5] = 80 °C/sealed, 1 day, listed as Crystal form E of methanesulfonate

Cc1cc(-c2cnn(-c3ccc(NS(=O)(=O)CCO)cc3N3CCC4(CC3)CC4)c2)nc(N2CCC(F)(F)CC2)n1 [crystal form C of the hydrochloride]
S: solubility ([1]; FaSSIF, 2 h, listed as Crystal form C of hydrochloride, 120 min): 120.4 µg/mL | S: solubility ([1]; FaSSIF, 24 h, listed as Crystal form C of hydrochloride, 1440 min): 36.3 µg/mL | S: solubility ([1]; H2O, 24 h, listed as Crystal form C of hydrochloride, 1440 min): 0.2 µg/mL | S: solubility ([1]; SGF, 2 h, listed as Crystal form C of hydrochloride, 120 min): 54.1 µg/mL | S: solubility ([1]; SGF, 24 h, listed as Crystal form C of hydrochloride, 1440 min): 18.8 µg/mL | pH ([1]; FaSSIF, 2 h, listed as Crystal form C of hydrochloride): 6.3 | pH ([1]; FaSSIF, 24 h, listed as Crystal form C of hydrochloride): 6.3 | pH ([1]; H2O, 2 h, listed as Crystal form C of hydrochloride): 2.7 | pH ([1]; H2O, 24 h, listed as Crystal form C of hydrochloride): 2.7 | pH ([1]; SGF, 2 h, listed as Crystal form C of hydrochloride): 1.8 | pH ([1]; SGF, 24 h, listed as Crystal form C of hydrochloride): 1.8

Cc1cc(-c2cnn(-c3ccc(NS(=O)(=O)CCO)cc3N3CCC4(CC3)CC4)c2)nc(N2CCC(F)(F)CC2)n1 [crystal form E of the methanesulfonate]
vapor sorption values [2]: 2.324% | HPLC results Relative to starting (%) ([3]; 25 °C/60% RH/open, 1 week): 100.0% | HPLC results Purity (area%) ([3]; 25 °C/60% RH/open, 1 week, listed as Crystal form E of methanesulfonate): 98.39 area% | HPLC results Relative to starting (%) ([3]; 40 °C/75% RH/open, 1 week): 100.0% | HPLC results Purity (area%) ([3]; 40 °C/75% RH/open, 1 week, listed as Crystal form E of methanesulfonate): 98.39 area% | HPLC results Purity (area%) [3, 5]: 98.37 area% | HPLC results Relative to starting (%) [3, 5]: 100.0% | HPLC results Purity (area%) ([3]; Starting, listed as Crystal form E of methanesulfonate): 98.36 area% | Crystal form ([3]; XRPD after 25 °C/60% RH/open, 1 week, listed as Crystal form E of methanesulfonate): Crystal form E of methanesulfonate | Crystal form ([3]; XRPD after 40 °C/75% RH/open, 1 week, listed as Crystal form E of methanesulfonate): Crystal form E of methanesulfonate | Crystal form ([3]; XRPD after 80 °C/sealed, 1 day, listed as Crystal form E of methanesulfonate): Crystal form E of methanesulfonate | S: solubility ([4]; FaSSIF, 1 h, 60 min): 60.4 µg/mL | S: solubility ([4]; FaSSIF, 2 h, 120 min): 46.6 µg/mL | S: solubility ([4]; FaSSIF, 4 h, 240 min): 35.9 µg/mL | S: solubility ([4]; FaSSIF, 24 h, 1440 min): 18.7 µg/mL | S: solubility ([4]; FeSSIF, 1 h, 60 min): 194.4 µg/mL | S: solubility ([4]; FeSSIF, 2 h, 120 min): 183.4 µg/mL | S: solubility ([4]; FeSSIF, 4 h, 240 min): 172.5 µg/mL | S: solubility ([4]; FeSSIF, 24 h, 1440 min): 89.9 µg/mL | S: solubility ([4]; H2O, 1 h, 60 min): 18.5 µg/mL | S: solubility ([4]; H2O, 2 h, 120 min): 14.5 µg/mL | S: solubility ([4]; H2O, 4 h, 240 min): 12.4 µg/mL | S: solubility ([4]; H2O, 24 h, 1440 min): 4.5 µg/mL | S: solubility ([4]; SGF, 1 h, 60 min): 125.1 µg/mL | S: solubility ([4]; SGF, 2 h, 120 min): 100.2 µg/mL | S: solubility ([4]; SGF, 4 h, 240 min): 84.6 µg/mL | S: solubility ([4]; SGF, 24 h, 1440 min): 16.4 µg/mL | FC: crystal form change ([4]; FaSSIF, 1 h): Yes | FC: crystal form change ([4]; FaSSIF, 2 h): Yes | FC: crystal form change ([4]; FaSSIF, 4 h): Yes | FC: crystal form change ([4]; FaSSIF, 24 h): Yes | FC: crystal form change ([4]; FeSSIF, 1 h): Yes | FC: crystal form change ([4]; FeSSIF, 2 h): Yes | FC: crystal form change ([4]; FeSSIF, 4 h): Yes | FC: crystal form change ([4]; FeSSIF, 24 h): Yes | FC: crystal form change ([4]; H2O, 1 h): Yes | FC: crystal form change ([4]; H2O, 2 h): Yes | FC: crystal form change ([4]; H2O, 4 h): Yes | FC: crystal form change ([4]; H2O, 24 h): Yes | FC: crystal form change ([4]; SGF, 1 h): Yes | FC: crystal form change ([4]; SGF, 2 h): Yes | FC: crystal form change ([4]; SGF, 4 h): Yes | FC: crystal form change ([4]; SGF, 24 h): Yes | pH ([4]; FaSSIF, 1 h): 2.78 | pH ([4]; FaSSIF, 2 h): 2.76 | pH ([4]; FaSSIF, 4 h): 2.77 | pH ([4]; FaSSIF, 24 h): 2.84 | pH ([4]; FeSSIF, 1 h): 4.69 | pH ([4]; FeSSIF, 2 h): 4.68 | pH ([4]; FeSSIF, 4 h): 4.70 | pH ([4]; FeSSIF, 24 h): 4.70 | pH ([4]; H2O, 1 h): 1.79 | pH ([4]; H2O, 2 h): 1.76 | pH ([4]; H2O, 4 h): 1.80 | pH ([4]; H2O, 24 h): 1.76 | pH ([4]; SGF, 1 h): 1.49 | pH ([4]; SGF, 2 h): 1.46 | pH ([4]; SGF, 4 h): 1.48 | pH ([4]; SGF, 24 h): 1.54

Cc1cc(-c2cnn(-c3ccc(NS(=O)(=O)CCO)cc3N3CCC4(CC3)CC4)c2)nc(N2CCC(F)(F)CC2)n1 [free crystal form C]
S: solubility ([1]; FaSSIF, 2 h, 120 min): 13.6 µg/mL | S: solubility ([1]; FaSSIF, 24 h, 1440 min): 3.8 µg/mL | S: solubility ([1]; SGF, 2 h, 120 min): 4 µg/mL | S: solubility ([1]; SGF, 24 h, 1440 min): 3.4 µg/mL | pH ([1]; FaSSIF, 2 h): 6.5 | pH ([1]; FaSSIF, 24 h): 6.5 | pH ([1]; H2O, 2 h): 8.7 | pH ([1]; H2O, 24 h): 7.2 | pH ([1]; SGF, 2 h): 1.9 | pH ([1]; SGF, 24 h): 1.9
